Read-outs that look alike come from different tables or passages of the source.
Key:
[1] = system: carrageenan induced inflammatory pain and paw edema; assay: Inflammatory pain and paw edema induced by carrageenan; assay type: in vivo, Male Sprague Dawley rats; conditions: for inhibition in vivo at 10 mg/kg: Rattus norvegicus, ip
Summary of the method: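 Male Sprague Dawley rats (~200 g) received 0.1 ml 2% λ-carrageenan subplantar in the right paw; compounds given i.p. at 3, 10 or 20 mg/kg (some p.o.) immediately after. Thermal (Hargreaves) latency, mechanical threshold, paw thickness and volume measured at 0 and 3 h; values are inter-paw differences ([…], ΔForce), volume as % of vehicle.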

[2] = system: TNBS induced inflammatory bowel disease; assay: TNBS induced inflammatory bowel disease; assay type: in vivo, Female Balb/C mice; conditions: for transient loss in body weight: one day after TNBS instillation; for mortality: untreated 60%
Experimental: Female Balb/C mice (average body weight 20 g, Harlan, Israel) were lightly sedated and challenged rectally, by instillation with 70 μl of 2.5% TNBS (Sigma) dissolved in 50% ethanol, to induce intestinal inflammation and colitis. Animals were weighted before the beginning of the study and treatment was administered i.p. on a daily basis for six days at 20 mg/kg and volume dosage of 5 ml/kg. During the study period of up to 7 days, the following parameters were daily monitored and recorded: body weight, presence of blood in the stool and stool consistency. These findings are scored according to Table 6 [Murthy S.N. et al., Dig. Dis. Sci. 38:1722-34, 1993].
On the last day of the study, animals were euthanized. Abdomen was open and the colon was sectioned at the level of the caecum and the rectum. The colon was weighted and its length was measured. The whole column was excised, slited longitudinally, and examined under a magnifying lens. Any visible damage was recorded and scored for gross pathology according to Wong [Wong et al., J. Pharm. Exp. Ther. 274: 475-80, 1995]. Namely, a score of 0 indicates no damage, 1 indicates localized hyperemia and/or edema, 2 indicates at least two sites of hyperemia and/or edema, 3 indicates localized erosion, 4 indicates localized ulcer and 5 indicates either an erosion site or ulcer extending for more than 2 cm along the colon or at least two sites of erosion or ulcer. Finally, the entire colon was fixed in 4% formaldehyde for histopathological evaluation.
Each treatment group comprised at least seven animals. The following groups served as negative controls: naïve animals, sham animals that received 70 μl of 50% ethanol without TNBS, and TNBS challenged untreated and vehicle treated animals. A group of animals receiving 10 mg/kg sulfasalazine served as positive controls. Sulfasalazine is a standard anti-inflammatory drug used for the treatment of mild to moderate ulcerative colitis and Crohn's disease, and as adjunctive therapy in the treatment of severe ulcerative colitis. This drug is also used for the treatment of non-IBD related disorders, such as rheumatoid arthritis and ankylosing spondylitis. The recognized side effect of this medicament is its hepatotoxicity upon chronic treatment.

[3] = system: visceral pain writhing responses; assay: Visceral pain, acetic acid induced writhing responses; assay type: in vivo, Male ICR mice; conditions: single dose 2 mg/kg i.v., compared to untreated group
[4] = system: mechanical allodyna after chronic constriction of the sciatic nerve; assay: Neuropathic pain, chronic constriction of the sciatic nerve (CCI); assay type: in vivo, Male Sprague Dawley rats; conditions: both 0.25 and 2 mg/kg i.v.
Experimental: The analgesic activity of compounds of the invention was assessed in a chronic constriction induced (CCI) model of neuropathic pain. […] The development of mechanical allodyna was monitored using a Dynamic Plantar Sesthesiomether as described in Example 18. This apparatus is an automated version of the classical von Frey filaments' test.
Pre-surgery baseline values were ascertained as the mean of 2 pre-surgery values. Once the baseline values are established, the animals were surgically prepared by constricting the right sciatic nerve with 4-0 chromic cat gut loose ligatures. On day 11 post-operation, the animals that have developed mechanical allodyna were arbitrarily allocated to the various treatment groups based on the pre-surgery values.
The design was randomized, performed in a masked fashion as to whether drug or vehicle is being given. Male Sprague Dawley rats (average body weight 240 g, Harlan, Israel), were allowed to acclimatize to the behavioral testing equipment prior to testing. On the testing day, the animals, at least six per treatment group, were administered the compounds and controls at a volume dosage of 5 ml/kg. Fifteen minutes later, the mechanical stimulus was applied and the force, measured in grams, causing a withdrawal response for each of the ipsilateral and contralateral hind paws was evaluated.
Results are expressed as mean±SEM for each treatment group and the differences among those groups are analyzed by analysis of variance (ANOVA) followed by post-hoc Tukey's test. A value of p<0.05 is considered to be statistically significant. Thereafter the difference in the force to be applied to the injured paw as compared to the normal paw was calculated. Δforce, expressed in grams, was measured at baseline and 1 and 4.5 hours after treatment.

COX-2 = assay: Gene expression in LPS activated RAW 264.7 macrophages, COX-2; assay type: cell-based, mouse; conditions: RAW 264.7, 10 μM, LPS 1 μg/ml, RNA 3 hrs after activation, vs vehicle treated activated cells
Experimental: (§1) RAW 264.7 macrophages, a mouse cell line (ATCC # TIB 71), were grown in Dulbecco's modified Eagle's medium (DMEM) with 4 mM L-glutamine adjusted to contain 1.5 g/L sodium bicarbonate, 4.5 g/L glucose, and 10% heat inactivated fetal bovine serum. Cells were grown in tissue culture flasks and seeded at appropriate density into 6 wells tissue culture plates. Four million Raw cells in half a milliliter were stimulated with 1 μg/ml LPS E. coli 055:B5 (DIFCO Laboratories). The mouse macrophages were pre-treated for one hour with controls or 10 μM of test compounds, and later on activated with LPS. RNA samples were extracted from the cells 3 hrs after activation and gene expression levels were analyzed by real-time RT-PCR. In parallel, supernatants were collected and secretion of inflammatory mediators was analyzed using ELISA techniques according to the instructions of the kit manufacturer.
(§2) Total RNA is prepared using SV total RNA isolation system (Promega). The cells were homogenized in lysis buffer. The lysates were transferred to an RNA isolation column, treated with DNAse, washed and eluted according to kit instructions. RNA concentrations were determined using GeneQuant II (Pharmacia-Amersham). Complementary DNA (cDNA) was synthesized from total RNA using […] II reverse transcriptase (Life Technologies). 2 μg of total RNA were combined with an oligo (dT)15 primer, 0.5 mM dNTP mix, 8 units of reverse transcriptase and other reaction components up to a final volume of 20 μl, according to the kit instructions. The reaction mixture was incubated at 42° C. for 45 min and inactivated at 70° C. for 15 minutes. Quantitative real-time RT-PCR included 1 μl of the cDNA, 300 nM of the appropriate forward and reverse primers (according to the gene monitored) and 7.5 μl of the reaction mix containing buffer, nucleotides, Taq polymerase and SYBER green (SYBER Green master mix, Applied Biosystems), in a total reaction volume of 15 μl. Gene amplification was obtained using the GeneAmp 5700 sequence detection system (Applied Biosystems). Amplification included one stage of 10 minutes at 95° C. followed by 40 cycles of a 2-steps loop: 20 seconds at 95° C., and 1 minute at 60° C. During each annealing step, the amount of the amplified product was measured by the fluorescence of the double strand DNA binding dye, SYBER Green. The cycle of threshold (CT), representing the PCR cycle at which an increase in fluorescence above a baseline signal can be first detected, was determined for each product. A delay of one PCR cycle in the CT is translated into a two-fold decrease in starting template molecules and vice versa. The changes in the CT of the specific gene product were normalized to the changes in the CT of housekeeping cyclophilin or GAPDH as reference genes. Results were expressed as fold increase of gene expression in treated or untreated activated cells above the resting cells, after normalization to cyclophilin or GAPDH. Cells were also tested for viability to confirm that any effect on gene expression was indeed due to modulation of transcription of a specific target and not to cytoxicity.
(§3) Results were further expressed as percent inhibition of gene expression in compound treated activated cells over vehicle “treated” activated cells. Since the modulation of IL-10 and TNF-α gene expression by the compounds of the invention is relatively minor, it is not reported. […] Inhibition above 50% was considered significant.

IL-1β = assay: Gene expression in LPS activated RAW 264.7 macrophages, IL-1β; assay type: cell-based, mouse; conditions: RAW 264.7, 10 μM, LPS 1 μg/ml, RNA 3 hrs after activation, vs vehicle treated activated cells
Experimental: as §1, §2, §3

MCP-1 = assay: Gene expression in LPS activated RAW 264.7 macrophages, MCP-1; assay type: cell-based, mouse; conditions: RAW 264.7, 10 μM, LPS 1 μg/ml, RNA 3 hrs after activation, vs vehicle treated activated cells
Experimental: as §1, §2, §3

iNOS = assay: Gene expression in LPS activated RAW 264.7 macrophages, iNOS; assay type: cell-based, mouse; conditions: RAW 264.7, 10 μM, LPS 1 μg/ml, RNA 3 hrs after activation, vs vehicle treated activated cells
Experimental: as §1, §2, §3

CCCCC(C)(C)c1cc(OCC(=O)O)c2c(c1)OC1CCCCC21 (stereo not shown) [Compound C6S-9, [3-(1,1-Dimethylpentyl)-5a,6,7,8,9,9a-hexahydro-dibenzofuran-1-yloxy]-acetic acid]
inhibition in vivo at 10 mg/kg ([1]; 10 mg/kg i.p., 3 hours, mechanical stimulus, read-out: Percent Inhibition of Inflammatory Pain Responses, ΔForce): 14%
inhibition in vivo at 10 mg/kg ([1]; 10 mg/kg i.p., 3 hours, thermal stimulus, read-out: Percent Inhibition of Inflammatory Pain Responses, ΔLT): 53%
transient loss in body weight ([2]; 20 mg/kg i.p. daily): behaved as the sulfasalazin treated group
mortality ([2]; 20 mg/kg i.p. daily): 0%

O=C(O)c1cc(/N=N/c2ccc(S(=O)(=O)Nc3ccccn3)cc2)ccc1O [sulfasalazine, reference compound]
regained normal weight on ([2]; 10 mg/kg): 6 days
transient loss in body weight ([2]; 10 mg/kg): 10%
mortality ([2]; 10 mg/kg): 0%

CCCCCCC(C)(C)c1cc(OCC(=O)O)c2c(c1)OC1C(O)CCCCC21 (stereo not drawn) [Compound C7S-10, [2-(1,1-dimethylheptyl)-9-hydroxy-5,6,7,8,9,9a-hexahydro-4bH-10-oxa-benzo[α]azulen-4-yloxy]-acetic acid]
Percent Inhibition of Visceral Pain Writhing Responses [3]: 53%
Percent Inhibition of Inflammatory Pain Responses, Edema ([1]; 10 mg/kg i.p., 3 hours after carrageenan, reduction in paw swelling): 41%
Percent Inhibition of Inflammatory Pain Responses, ΔForce ([1]; 10 mg/kg i.p., 3 hours, mechanical stimulus): 25%
Percent Inhibition of Inflammatory Pain Responses, ΔLT ([1]; 10 mg/kg i.p., 3 hours, thermal stimulus): 61%
inhibition of paw swelling ([1]; 30 mg/kg p.o.): 60%
pain response (Δforce) ([4]; last time point (4.5 hours)): totally abrogated the pain response
reduction of pain response (Δforce) ([4]; one hour after administration): 70-80%

CCCCC(C)(C)c1cc(O)c2c(c1)OC1CC(C)(C)CCC21 (stereo not shown) [Compound C6S-6, 3-(1,1-dimethylpentyl)-7,7-dimethyl-5a,6,7,8,9,9a-hexahydro-dibenzofuran-1-ol]
Percent inhibition of gene expression, COX-2 (COX-2): NO (NO indicates that the compound tested did not significantly affect the transcription of the gene assessed and that its activity is comparable to vehicle, within ±20% from this control)
inhibition in vivo at 2 mg/kg ([3]; Mus musculus, iv, read-out: Percent Inhibition of Visceral Pain Writhing Responses): 38%
Percent inhibition of gene expression, IL-1β (IL-1β): 37%
Percent inhibition of gene expression, MCP-1 (MCP-1): NO (NO indicates that the compound tested did not significantly affect the transcription of the gene assessed and that its activity is comparable to vehicle, within ±20% from this control)
Percent inhibition of gene expression, iNOS (iNOS): NO (NO indicates that the compound tested did not significantly affect the transcription of the gene assessed and that its activity is comparable to vehicle, within ±20% from this control)
